Where a name gives a salt, the structure may show the parent alone.

One test has as its system Abeta total. The test can be described thus: Cellular αLisa assay in SKNBE2 cells, Abeta total. As to conditions: incubated for 18 hours; for IC50: Homo sapiens, SKNBE2, 18 h, read-out: Cellular αLisa assay in SKNBE2 cells Abetatotal pIC50 (converted). It counts as cell-based, human. As to the method:
(§1) Cellular αLisa Assay in SKNBE2 Cells
(§2) In two αLisa assays the levels of Abeta total and Abeta 1-42 produced and secreted into the medium of human neuroblastoma SKNBE2 cells are quantified. The assay is based on the human neuroblastoma SKNBE2 expressing the wild type Amyloid Precursor Protein (hAPP695). The compounds are diluted and added to these cells, incubated for 18 hours and then measurements of Abeta 1-42 and Abeta total are taken. Abeta total and Abeta 1-42 are measured by sandwich αLisa. αLisa is a sandwich assay using biotinylated antibody AbN/25 attached to streptavidin coated beads and antibody Ab4G8 or cAb42/26 conjugated acceptor beads for the detection of Abeta total and Abeta 1-42 respectively. In the presence of Abeta total or Abeta 1-42, the beads come into close proximity. The excitation of the donor beads provokes the release of singlet oxygen molecules that trigger a cascade of energy transfer in the acceptor beads, resulting in light emission. Light emission is measured after 1 hour incubation (excitation at […] and emission at 615 nm).

The next test concerns Abeta 1-42. The test can be described thus: Cellular αLisa assay in SKNBE2 cells, Abeta 1-42. It counts as cell-based, human. As to conditions: incubated for 18 hours; for IC50: Homo sapiens, SKNBE2, 18 h, read-out: Cellular αLisa assay in SKNBE2 cells Abeta 42 pIC50 (converted). The method, then: as §1, §2

With `CC1(c2cccc(-c3cncnc3)c2)COCC(N)=N1` (racemic) [Compound 3, rac-5-methyl-5-(3-pyrimidin-5-ylphenyl)-5,6-dihydro-2H-1,4-oxazin-3-amine trifluoroacetate salt], the IC50 in the test with Abeta total was 646 nM; in the test on Abeta 1-42, 631 nM.

In the case of `CC1(c2cc(NC(=O)c3ccc(Cl)cn3)ccc2F)COCC(N)=N1` (racemic) [Compound 17], in the test with Abeta total, the “Cellular αLisa assay in SKNBE2 cells Abetatotal pIC50” value is listed as 8.3. For the same compound, the “Cellular αLisa assay in SKNBE2 cells Abeta 42 pIC50” value in the test on Abeta 1-42 was 8.32. For `COc1cnc(C(=O)Nc2ccc(F)c(C3(C)COCC(N)=N3)c2)cn1` (racemic) [Compound 57], the “Cellular αLisa assay in SKNBE2 cells Abetatotal pIC50” value in the test on Abeta total amounted to 7.8. For the same compound, the “Cellular αLisa assay in SKNBE2 cells Abeta 42 pIC50” value in the test on Abeta 1-42 was 7.79. `CC1(c2cc(NC(=O)c3ccc(Cl)cn3)ccc2F)COCC(N)=N1` (racemic) [Compound 65]: in the test with Abeta total, the “Cellular αLisa assay in SKNBE2 cells Abetatotal pIC50” value turned out to be 8.3. Further, the “Cellular αLisa assay in SKNBE2 cells Abeta 42 pIC50” value with Abeta 1-42 is reported as 8.32.

Regarding `CC1(c2cc(NC(=O)c3ccc(Cl)cn3)ccc2F)N=C(N)COC1C(F)(F)F` (racemic) [Compound 107, trans-rac-N-{3-[5-amino-3-methyl-2-(trifluoromethyl)-3,6-dihydro-2H-1,4-oxazin-3-yl]-4-fluorophenyl}-5-chloropyridine-2-carboxamide], the IC50 with Abeta total is 12.6 nM; in the test with Abeta 1-42, 15.5 nM. For the compound `CC1(c2cc(NC(=O)c3ccc(Cl)cn3)ccc2F)COCC(N)=N1` (single isomer, unassigned) [Compound 61], the “Cellular αLisa assay in SKNBE2 cells Abetatotal pIC50” value in the test with Abeta total was found to be 6.98. Moreover, the “Cellular αLisa assay in SKNBE2 cells Abeta 42 pIC50” value with Abeta 1-42 came out at 6.94. Take `C[C@@]1(c2cc(NC(=O)c3ccc(Cl)cn3)ccc2F)N=C(N)CO[C@]1(F)C(F)(F)F` (single isomer, unassigned) [Compound 109, (2R*,3S*)—N-{3-[5-amino-2-fluoro-3-methyl-2-(trifluoromethyl)-3,6-dihydro-2H-1,4-oxazin-3-yl]-4-fluorophenyl}-5-chloropyridine-2-carboxamide]: the IC50 in the test on Abeta total was 832 nM; with Abeta 1-42, 708 nM. For `C[C@]1(c2cc(NC(=O)c3ccc(Cl)cn3)ccc2F)N=C(N)CO[C@@]1(F)C(F)(F)F` (single isomer, unassigned) [Compound 110, (2S*,3R*)—N-{3-[5-amino-2-fluoro-3-methyl-2-(trifluoromethyl)-3,6-dihydro-2H-1,4-oxazin-3-yl]-4-fluorophenyl}-5-chloropyridine-2-carboxamide], in that order: 22.4 nM and 22.9 nM.

As to `CC1(c2cccc(NC(=O)c3ccc(Cl)cn3)c2)N=C(N)COC1(F)C(F)(F)F` (single isomer, unassigned) [Compound 114], in the test with Abeta total, the “Cellular αLisa assay in SKNBE2 cells Abetatotal pIC50” value is listed as 5.5. In addition, the “Cellular αLisa assay in SKNBE2 cells Abeta 42 pIC50” value in the test with Abeta 1-42 is 5.82. With `CC1(c2cccc(NC(=O)c3ccc(Cl)cn3)c2)N=C(N)COC1(F)C(F)(F)F` (single isomer, unassigned) [Compound 115], the “Cellular αLisa assay in SKNBE2 cells Abetatotal pIC50” value with Abeta total was 6.68. As to `CC1(c2cc(NC(=O)c3ccc(C#N)cn3)ccc2F)N=C(N)COC1F` (single isomer, unassigned) [Compound 125], the “Cellular αLisa assay in SKNBE2 cells Abetatotal pIC50” value with Abeta total is given as 6.42. In addition, the “Cellular αLisa assay in SKNBE2 cells Abeta 42 pIC50” value with Abeta 1-42 was determined as 6.44. Take `COc1cnc(C(=O)Nc2ccc(F)c(C3(C)N=C(N)COC3F)c2)cn1` (single isomer, unassigned) [Compound 129]: the results for the IC50 in the test with Abeta total and with Abeta 1-42 were 4570 nM and 5250 nM, respectively. Take `CC1(c2cc(NC(=O)c3ccc(Cl)cn3)ccc2F)N=C(N)COC1F` (single isomer, unassigned) [Compound 135]: in the test with Abeta total, the “Cellular αLisa assay in SKNBE2 cells Abetatotal pIC50” value was 5.06. The “Cellular αLisa assay in SKNBE2 cells Abeta 42 pIC50” value in the test with Abeta 1-42 is listed as 5.04.

`CC1(c2cc(NC(=O)c3ccc(Cl)cn3)ccc2F)N=C(N)COC1F` (single isomer, unassigned) [Compound 136]: the “Cellular αLisa assay in SKNBE2 cells Abetatotal pIC50” value in the test with Abeta total is reported as 5.27. Also, in the test on Abeta 1-42, the “Cellular αLisa assay in SKNBE2 cells Abeta 42 pIC50” value was 5.26. For the compound `CC1(c2cc(NC(=O)c3ccc(Cl)cn3)ccc2F)N=C(N)COC1F` (single isomer, unassigned) [Compound 137], the “Cellular αLisa assay in SKNBE2 cells Abetatotal pIC50” value in the test on Abeta total was under 4.82. Also, the “Cellular αLisa assay in SKNBE2 cells Abeta 42 pIC50” value in the test with Abeta 1-42 is listed as under 4.82. For the compound `CC1(c2cc(NC(=O)c3ccc(Cl)cn3)ccc2F)N=C(N)COC1(F)C(F)(F)F.Cl.Cl` (single isomer, unassigned) [Compound 159], in the test with Abeta total, the “Cellular αLisa assay in SKNBE2 cells Abetatotal pIC50” value came out at 6.08. The “Cellular αLisa assay in SKNBE2 cells Abeta 42 pIC50” value in the test on Abeta 1-42 is 6.15. On to `CC1(c2cc(NC(=O)c3ncc(Cl)cc3Cl)ccc2F)COCC(N)=N1` (stereo not drawn) [Compound 21], for which the “Cellular αLisa assay in SKNBE2 cells Abetatotal pIC50” value in the test with Abeta total came to 8.3. Also, the “Cellular αLisa assay in SKNBE2 cells Abeta 42 pIC50” value in the test on Abeta 1-42 is recorded as 8.27. For the compound `C[C@@]1(c2cc(NC(=O)c3ccc(Cl)cn3)ccc2F)COCC(N)=N1` [Compound 44], the “Cellular αLisa assay in SKNBE2 cells Abetatotal pIC50” value in the test on Abeta total was 8.3945. The “Cellular αLisa assay in SKNBE2 cells Abeta 42 pIC50” value with Abeta 1-42 is 8.39.

As for `C[C@@]1(c2cc(NC(=O)c3ccc(Cl)cn3)ccc2F)COCC(N)=N1` [Compound 62], the “Cellular αLisa assay in SKNBE2 cells Abetatotal pIC50” value in the test with Abeta total amounted to 8.39. In addition, the “Cellular αLisa assay in SKNBE2 cells Abeta 42 pIC50” value in the test with Abeta 1-42 was 8.39. For `CC1(c2cc(NC(=O)c3ccc(C#N)cn3)ccc2F)N=C(N)COC1F` (stereo not drawn) [Compound 76], the IC50 in the test on Abeta total was 11.2 nM; in the test with Abeta 1-42, 11 nM. Regarding `COc1cnc(C(=O)Nc2ccc(F)c(C3(C)N=C(N)COC3F)c2)cn1` (stereo not drawn) [Compound 79], the IC50 with Abeta total and in the test with Abeta 1-42 was 25.7 nM in each case. `CC1(c2cc(NC(=O)c3ccc(Cl)cn3)ccc2F)N=C(N)COC1C(F)(F)F` (stereo not drawn) [Compound 165]: in the test with Abeta total, the “Cellular αLisa assay in SKNBE2 cells Abetatotal pIC50” value worked out at 8.13. Moreover, the “Cellular αLisa assay in SKNBE2 cells Abeta 42 pIC50” value in the test with Abeta 1-42 is reported as 8.14. Turning to `CC1(c2cc(NC(=O)c3ccc(Cl)cn3)ccc2F)N=C(N)COC1C(F)(F)F` (stereo not drawn) [Compound 170], in the test with Abeta total, the “Cellular αLisa assay in SKNBE2 cells Abetatotal pIC50” value was determined as 8. Besides, in the test on Abeta 1-42, the “Cellular αLisa assay in SKNBE2 cells Abeta 42 pIC50” value is 8.

`CC1(c2cc(NC(=O)c3ccc(Cl)cn3)ccc2F)N=C(N)COC1(F)C(F)(F)F` (stereo not drawn) [Compound 186]: in the test with Abeta total, the “Cellular αLisa assay in SKNBE2 cells Abetatotal pIC50” value is on record as 6.78. For the same compound, in the test with Abeta 1-42, the “Cellular αLisa assay in SKNBE2 cells Abeta 42 pIC50” value is reported as 6.75. Consider `COc1cnc(C(=O)Nc2ccc(F)c(C3(C4CC4)N=C(N)COC3F)c2)cn1.Cl` (stereo not drawn) [Compound 244], for which the “Cellular αLisa assay in SKNBE2 cells Abetatotal pIC50” value in the test with Abeta total amounted to 7.11. Regarding `COc1ccc(C(=O)Nc2cccc([C@@]3(C)N=C(N)CO[C@]3(F)C(F)(F)F)c2)nc1` [Compound 247], the IC50 in the test on Abeta total is 14.5 nM; in the test on Abeta 1-42, 16.2 nM. As to `COc1ccc(C(=O)Nc2cccc([C@@]3(C)N=C(N)CO[C@@]3(F)C(F)(F)F)c2)nc1` [Compound 248], the IC50 in the test on Abeta total is 209 nM; in the test with Abeta 1-42 it was 229 nM. Turning to `NC1=N[C@@](c2cc(-c3cncc(Cl)c3)ccc2F)(C2CC2)[C@H](F)OC1` [Compound 273], the IC50 in the test with Abeta total is 6460 nM; with Abeta 1-42, 8130 nM.

These data come from patent US9828350B2, “5,6-dihydro-2H-[1,4]oxazin-3-yl-amine derivatives useful as inhibitors of beta-secretase (BACE)” (Janssen Pharmaceutica NV, priority 2010, dated 2017).
